Patent publication US9000029B2, “Proline sulfonamide derivatives as orexin receptor antagonists” (Actelion Pharmaceuticals Ltd., priority 2010, dated 2015)

Assays:
human orexin-1 receptor = human orexin-1 receptor (Homo sapiens (Human), UniProt O43613); assay: Intracellular calcium measurements (FLIPR), antagonism of orexin-A response; assay type: cell-based; settings: CHO cells, 3 nM orexin-A, compound incubation 10 min; read-out: IC50 Ox1
Description: (§1) In Vitro Assay: Intracellular Calcium Measurements:
(§2) Chinese hamster ovary (CHO) cells expressing the human orexin-1 receptor and the human orexin-2 receptor, respectively, are grown in culture medium (Ham F-12 with L-Glutamine) containing 300 μg/ml G418, 100 U/ml penicillin, 100 μg/ml streptomycin and 10% heat inactivated fetal calf serum (FCS). The cells are seeded at 20'000 cells/well into 384-well black clear bottom sterile plates (Greiner). The seeded plates are incubated overnight at 37° C. in 5% CO2.
(§3) Human orexin-A as an agonist is prepared as 1 mM stock solution in MeOH: water (1:1), diluted in HBSS containing 0.1% bovine serum albumin (BSA), NaHCO3: 0.375 g/l and 20 mM HEPES for use in the assay at a final concentration of 3 nM.
(§4) Antagonists are prepared as 10 mM stock solution in DMSO, then diluted in 384-well plates using DMSO followed by a transfer of the dilutions into in HBSS containing 0.1% bovine serum albumin (BSA), NaHCO3: 0.375 g/l and 20 mM HEPES. On the day of the assay, 50 μl of staining buffer (HBSS containing 1% FCS, 20 mM HEPES, NaHCO3: 0.375 g/l, 5 mM probenecid (Sigma) and 3 μM of the fluorescent calcium indicator fluo-4 AM (1 mM stock solution in DMSO, containing 10% pluronic) is added to each well. The 384-well cell-plates are incubated for 50 min at 37° C. in 5% CO2 followed by equilibration at RT for 30 min before measurement.
(§5) Within the Fluorescent Imaging Plate Reader (FLIPR Tetra, Molecular Devices), antagonists are added to the plate in a volume of 10 μl/well, incubated for 10 min or (where explicitly indicated) for 120 min and finally 10 μl/well of agonist is added. Fluorescence is measured for each well at 1 second intervals, and the height of each fluorescence peak is compared to the height of the fluorescence peak induced by 3 nM orexin-A with vehicle in place of antagonist. The IC50 value (the concentration of compound needed to inhibit 50% of the agonistic response) is determined and may be normalized using the obtained IC50 value of a on-plate reference compound. Optimized conditions were achieved by adjustment of pipetting speed and cell splitting regime. The calculated IC50 values may fluctuate depending on the daily cellular assay performance. Fluctuations of this kind are known to those skilled in the art.

human orexin-2 receptor = human orexin-2 receptor (Homo sapiens (Human), UniProt O43614); assay: as above; assay type: cell-based; settings: CHO cells, 3 nM orexin-A, compound incubation 10 min; read-out: IC50 Ox2
Description: as §1, §2, §3, §4, §5

human orexin-1 receptor, sequence (O43613 whole entry): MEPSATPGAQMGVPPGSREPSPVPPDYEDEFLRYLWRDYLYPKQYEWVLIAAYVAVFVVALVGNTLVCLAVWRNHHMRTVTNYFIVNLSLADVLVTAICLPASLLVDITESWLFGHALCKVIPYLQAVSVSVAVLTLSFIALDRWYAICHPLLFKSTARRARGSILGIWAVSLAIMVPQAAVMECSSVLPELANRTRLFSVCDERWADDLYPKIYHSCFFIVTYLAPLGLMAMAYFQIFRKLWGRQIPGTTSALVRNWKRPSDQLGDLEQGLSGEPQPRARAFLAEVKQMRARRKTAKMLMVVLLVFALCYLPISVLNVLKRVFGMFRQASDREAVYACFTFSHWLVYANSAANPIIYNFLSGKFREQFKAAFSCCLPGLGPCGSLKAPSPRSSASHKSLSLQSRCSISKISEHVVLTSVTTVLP
human orexin-2 receptor, sequence (O43614 whole entry): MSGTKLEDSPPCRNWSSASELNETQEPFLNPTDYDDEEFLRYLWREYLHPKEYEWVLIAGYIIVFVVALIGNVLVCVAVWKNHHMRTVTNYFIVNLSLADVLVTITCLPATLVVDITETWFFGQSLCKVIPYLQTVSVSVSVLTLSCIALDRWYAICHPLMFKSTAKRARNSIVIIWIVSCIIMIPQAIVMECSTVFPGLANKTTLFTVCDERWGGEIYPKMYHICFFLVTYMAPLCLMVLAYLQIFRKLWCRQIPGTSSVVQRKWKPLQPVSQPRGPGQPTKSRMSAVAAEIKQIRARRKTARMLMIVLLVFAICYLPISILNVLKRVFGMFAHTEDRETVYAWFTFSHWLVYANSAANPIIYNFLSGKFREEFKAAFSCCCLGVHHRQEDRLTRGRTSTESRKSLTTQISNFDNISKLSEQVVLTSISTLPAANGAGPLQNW

CSc1cccc(NC(=O)[C@@H]2CCCN2S(=O)(=O)c2ccc(Br)s2)c1 [Example 1, (S)-1-(5-Bromo-thiophene-2-sulfonyl)-pyrrolidine-2-carboxylic acid (3-methylsulfanyl-phenyl)-amide]
IC50 (human orexin-1 receptor): 20 nM | IC50 (human orexin-2 receptor): 10 nM

O=C(Nc1cccc(OC(F)(F)F)c1)[C@@H]1CCCN1S(=O)(=O)c1ccc(Br)s1 [Example 2, (S)-1-(5-Bromo-thiophene-2-sulfonyl)-pyrrolidine-2-carboxylic acid (3-trifluoromethoxy-phenyl)-amide]
IC50 (human orexin-1 receptor): 149 nM | IC50 (human orexin-2 receptor): 104 nM

COc1cccc(S(=O)(=O)N2CCC[C@H]2C(=O)Nc2cccc(SC)c2)c1 [Example 3, (S)-1-(3-Methoxy-benzenesulfonyl)-pyrrolidine-2-carboxylic acid (3-methylsulfanyl-phenyl)-amide]
IC50 (human orexin-1 receptor): 28 nM | IC50 (human orexin-2 receptor): 8 nM

CCCc1ccc(S(=O)(=O)N2CCC[C@H]2C(=O)Nc2cccc(SC)c2)cc1 [Example 4, (S)-1-(4-Propyl-benzenesulfonyl)-pyrrolidine-2-carboxylic acid (3-methylsulfanyl-phenyl)-amide]
IC50 (human orexin-1 receptor): 91 nM | IC50 (human orexin-2 receptor): 47 nM

CSc1cccc(NC(=O)[C@@H]2CCCN2S(=O)(=O)c2ccc3c(c2)OCCN3C)c1 [Example 5, (S)-1-(4-Methyl-3,4-dihydro-2H-benzo[1,4]oxazine-7-sulfonyl)-pyrrolidine-2-carboxylic acid (3-methylsulfanyl-phenyl)-amide]
IC50 (human orexin-1 receptor): 128 nM | IC50 (human orexin-2 receptor): 27 nM

COc1ccc(S(=O)(=O)N2CCC[C@H]2C(=O)Nc2cccc(SC)c2)cc1 [Example 6, (S)-1-(4-Methoxy-benzenesulfonyl)-pyrrolidine-2-carboxylic acid (3-methylsulfanyl-phenyl)-amide]
IC50 (human orexin-1 receptor): 21 nM | IC50 (human orexin-2 receptor): 3 nM

CSc1cccc(NC(=O)[C@@H]2CCCN2S(=O)(=O)c2cccc(Cl)c2)c1 [Example 7, (S)-1-(3-Chloro-benzenesulfonyl)-pyrrolidine-2-carboxylic acid (3-methylsulfanyl-phenyl)-amide]
IC50 (human orexin-1 receptor): 8 nM | IC50 (human orexin-2 receptor): 2 nM

CSc1cccc(NC(=O)[C@@H]2CCCN2S(=O)(=O)c2ccc(C(F)(F)F)cc2)c1 [Example 8, (S)-1-(4-Trifluoromethyl-benzenesulfonyl)-pyrrolidine-2-carboxylic acid (3-methylsulfanyl-phenyl)-amide]
IC50 (human orexin-1 receptor): 63 nM | IC50 (human orexin-2 receptor): 17 nM

CSc1cccc(NC(=O)[C@@H]2CCCN2S(=O)(=O)c2ccc(Cl)cc2)c1 [Example 9, (S)-1-(4-Chloro-benzenesulfonyl)-pyrrolidine-2-carboxylic acid (3-methylsulfanyl-phenyl)-amide]
IC50 (human orexin-1 receptor): 15 nM | IC50 (human orexin-2 receptor): 9 nM

COc1ccc(S(=O)(=O)N2CCC[C@H]2C(=O)Nc2cccc(SC)c2)cc1OC [Example 10, (S)-1-(3,4-Dimethoxy-benzenesulfonyl)-pyrrolidine-2-carboxylic acid (3-methylsulfanyl-phenyl)-amide]
IC50 (human orexin-1 receptor): 57 nM | IC50 (human orexin-2 receptor): 3 nM

CSc1cccc(NC(=O)[C@@H]2CCCN2S(=O)(=O)c2cccc(Br)c2)c1 [Example 11, (S)-1-(3-Bromo-benzenesulfonyl)-pyrrolidine-2-carboxylic acid (3-methylsulfanyl-phenyl)-amide]
IC50 (human orexin-1 receptor): 7 nM | IC50 (human orexin-2 receptor): 2 nM

CSc1cccc(NC(=O)[C@@H]2CCCN2S(=O)(=O)c2ccc(C)c(Cl)c2)c1 [Example 12, (S)-1-(3-Chloro-4-methyl-benzenesulfonyl)-pyrrolidine-2-carboxylic acid (3-methylsulfanyl-phenyl)-amide]
IC50 (human orexin-1 receptor): 5 nM | IC50 (human orexin-2 receptor): 3 nM

CSc1cccc(NC(=O)[C@@H]2CCCN2S(=O)(=O)c2ccc(Br)cc2)c1 [Example 13, (S)-1-(4-Bromo-benzenesulfonyl)-pyrrolidine-2-carboxylic acid (3-methylsulfanyl-phenyl)-amide]
IC50 (human orexin-1 receptor): 22 nM | IC50 (human orexin-2 receptor): 10 nM

CSc1cccc(NC(=O)[C@@H]2CCCN2S(=O)(=O)c2ccc(Cl)c(Cl)c2)c1 [Example 14, (S)-1-(3,4-Dichloro-benzenesulfonyl)-pyrrolidine-2-carboxylic acid (3-methylsulfanyl-phenyl)-amide]
IC50 (human orexin-1 receptor): 7 nM | IC50 (human orexin-2 receptor): 2 nM

O=C(Nc1ccccc1)[C@@H]1CCCN1S(=O)(=O)c1ccc(Br)s1 [Example 15, (S)-1-(5-Bromo-thiophene-2-sulfonyl)-pyrrolidine-2-carboxylic acid phenylamide]
IC50 (human orexin-1 receptor): 333 nM | IC50 (human orexin-2 receptor): 164 nM

COc1ccc(S(=O)(=O)N2CCC[C@H]2C(=O)Nc2cc(Cl)cc(Cl)c2)cc1 [Example 16, (S)-1-(4-Methoxy-benzenesulfonyl)-pyrrolidine-2-carboxylic acid (3,5-dichloro-phenyl)-amide]
IC50 (human orexin-1 receptor): 64 nM | IC50 (human orexin-2 receptor): 20 nM

COc1ccc(S(=O)(=O)N2CCC[C@H]2C(=O)Nc2cccc(C(F)(F)F)c2)cc1 [Example 17, (S)-1-(4-Methoxy-benzenesulfonyl)-pyrrolidine-2-carboxylic acid (3-trifluoromethyl-phenyl)-amide]
IC50 (human orexin-1 receptor): 55 nM | IC50 (human orexin-2 receptor): 9 nM

COc1ccc(S(=O)(=O)N2CCC[C@H]2C(=O)Nc2cccc(Cl)c2)cc1 [Example 18, (S)-1-(4-Methoxy-benzenesulfonyl)-pyrrolidine-2-carboxylic acid (3-chloro-phenyl)-amide]
IC50 (human orexin-1 receptor): 83 nM | IC50 (human orexin-2 receptor): 31 nM

COc1ccc(S(=O)(=O)N2CCC[C@H]2C(=O)Nc2cccc(Br)c2)cc1 [Example 19, (S)-1-(4-Methoxy-benzenesulfonyl)-pyrrolidine-2-carboxylic acid (3-bromo-phenyl)-amide]
IC50 (human orexin-1 receptor): 79 nM | IC50 (human orexin-2 receptor): 37 nM

COc1ccc(S(=O)(=O)N2CCC[C@H]2C(=O)Nc2cccc(C)c2)cc1 [Example 20, (S)-1-(4-Methoxy-benzenesulfonyl)-pyrrolidine-2-carboxylic acid m-tolylamide]
IC50 (human orexin-1 receptor): 214 nM | IC50 (human orexin-2 receptor): 17 nM

COc1ccc(S(=O)(=O)N2CCC[C@H]2C(=O)Nc2cccc(OC)c2)cc1 [Example 21, (S)-1-(4-Methoxy-benzenesulfonyl)-pyrrolidine-2-carboxylic acid (3-methoxy-phenyl)-amide]
IC50 (human orexin-1 receptor): 182 nM | IC50 (human orexin-2 receptor): 47 nM

COc1ccc(S(=O)(=O)N2CCC[C@H]2C(=O)Nc2cccc(N(C)C)c2)cc1 [Example 22, (S)-1-(4-Methoxy-benzenesulfonyl)-pyrrolidine-2-carboxylic acid (3-dimethylamino-phenyl)-amide]
IC50 (human orexin-1 receptor): 234 nM | IC50 (human orexin-2 receptor): 19 nM

COc1ccc(S(=O)(=O)N2CCC[C@H]2C(=O)Nc2ccc(C)c(C)c2)cc1 [Example 23, (S)-1-(4-Methoxy-benzenesulfonyl)-pyrrolidine-2-carboxylic acid (3,4-dimethyl-phenyl)-amide]
IC50 (human orexin-1 receptor): 174 nM | IC50 (human orexin-2 receptor): 29 nM

COc1ccc(S(=O)(=O)N2CCC[C@H]2C(=O)Nc2cccc3ccccc23)cc1 [Example 24, (S)-1-(4-Methoxy-benzenesulfonyl)-pyrrolidine-2-carboxylic acid naphthalen-1-ylamide]
IC50 (human orexin-1 receptor): 269 nM | IC50 (human orexin-2 receptor): 171 nM

COc1ccc(S(=O)(=O)N2CCC[C@H]2C(=O)Nc2cccc(C#N)c2)cc1 [Example 25, (S)-1-(4-Methoxy-benzenesulfonyl)-pyrrolidine-2-carboxylic acid (3-cyano-phenyl)-amide]
IC50 (human orexin-1 receptor): 994 nM | IC50 (human orexin-2 receptor): 98 nM

COc1ccc(S(=O)(=O)N2CCC[C@H]2C(=O)Nc2cc(OC)cc(OC)c2)cc1 [Example 27, (S)-1-(4-Methoxy-benzenesulfonyl)-pyrrolidine-2-carboxylic acid (3,5-dimethoxy-phenyl)-amide]
IC50 (human orexin-1 receptor): 121 nM | IC50 (human orexin-2 receptor): 16 nM

COc1ccc(S(=O)(=O)N2CCC[C@H]2C(=O)Nc2cc(C)ccc2Cl)cc1 [Example 28, (S)-1-(4-Methoxy-benzenesulfonyl)-pyrrolidine-2-carboxylic acid (2-chloro-5-methyl-phenyl)-amide]
IC50 (human orexin-1 receptor): 305 nM | IC50 (human orexin-2 receptor): 224 nM

COc1ccc(S(=O)(=O)N2CCC[C@H]2C(=O)Nc2cc(OC)ccc2Cl)cc1 [Example 29, (S)-1-(4-Methoxy-benzenesulfonyl)-pyrrolidine-2-carboxylic acid (2-chloro-5-methoxy-phenyl)-amide]
IC50 (human orexin-1 receptor): 625 nM | IC50 (human orexin-2 receptor): 128 nM

COc1ccc(S(=O)(=O)N2CCC[C@H]2C(=O)Nc2cc(C(F)(F)F)cc(C(F)(F)F)c2)cc1 [Example 30, (S)-1-(4-Methoxy-benzenesulfonyl)-pyrrolidine-2-carboxylic acid (3,5-bis-trifluoromethyl-phenyl)-amide]
IC50 (human orexin-1 receptor): 86 nM | IC50 (human orexin-2 receptor): 68 nM
